Test system: healthy male subjects
Experiment: Safety: treatment-emergent adverse events, SAD study
Format: in vivo, human
Description: Safety was assessed by monitoring adverse events (AEs) throughout the studies that were coded using the standard Medical Dictionary for Regulatory Activities (MedDRA) dictionary (versions 19.0 [SAD part 1], 20.0 [SAD part 2] and 21.1 [MAD]). Other safety monitoring included 12‐lead electrocardiography recordings, measurement of vital signs (systolic and diastolic blood pressure and heart rate), physical and neurological (Hamilton depression rating scale[17] and Beck depression inventory‐II fastscreen[18] [SAD only], mental status examination, cranial nerves assessment and motor system examination, sensation to light touch, coordination/cerebellar function assessment, Romberg's test, gait test, daytime sleepiness assessment [SAD and MAD studies]) examinations, haematology, biochemistry and urinalysis. To minimise risks in the SAD and MAD studies, subjects were dosed sequentially using sentinels in each cohort (1 IP, 1 placebo) as per European Medicines Agency guidelines.[19] If the previous dose was well tolerated, with no safety concerns, dose escalation was decided by the Safety Review Group after reviewing safety and PK data from all available cohorts. Moreover, treatment with the highest dose in the SAD study was repeated (cohort 10) for regular ophthalmological evaluations (assessments available as supplementary information) to better characterise visual AEs observed in the SAD study. Regular ophthalmological assessments were also performed in the MAD study.

With CC(C)C[C@H]1C(=O)O[C@H](Cc2ccc(N3CCOCC3)cc2)C(=O)N(C)[C@@H](CC(C)C)C(=O)O[C@H](C)C(=O)N(C)[C@@H](CC(C)C)C(=O)O[C@H](Cc2ccc(N3CCOCC3)cc2)C(=O)N(C)[C@@H](CC(C)C)C(=O)O[C@H](C)C(=O)N1C [emodepside] the “Any TEAE” value (SAD Part 1, 0.1 mg LSF n = 1) was 1 (100) n (%), the “TEAE: Eye disorders” value (SAD Part 1, 0.1 mg LSF n = 1) was 0 n (%) and the “TEAE: Gastrointestinal disorders” value (SAD Part 1, 0.1 mg LSF n = 1) was 0 n (%). The “TEAE: General disorders and administration site disorders” value (SAD Part 1, 0.1 mg LSF n = 1) was 0 n (%), the “TEAE: Infections and infestations” value (SAD Part 1, 0.1 mg LSF n = 1) was 1 (100) n (%) and the “TEAE: Injury, poisoning and procedural complications” value (“TEAE: Injury” below) (SAD Part 1, 0.1 mg LSF n = 1) was 0 n (%). For the same compound, the “TEAE: Musculoskeletal and connective tissue disorders” value (SAD Part 1, 0.1 mg LSF n = 1) was 0 n (%), the “TEAE: Nervous system disorders” value (SAD Part 1, 0.1 mg LSF n = 1) was 0 n (%) and the “TEAE: Psychiatric disorders” value (SAD Part 1, 0.1 mg LSF n = 1) was 0 n (%). For the same compound, the “TEAE: Respiratory, thoracic and mediastinal disorders” value (“TEAE: Respiratory” for short) (SAD Part 1, 0.1 mg LSF n = 1) was 0 n (%), the “Any TEAE” value (SAD Part 1, 1 mg LSF n = 5) was 3 (60.0) n (%) and the “TEAE: Eye disorders” value (SAD Part 1, 1 mg LSF n = 5) was 0 n (%). For the same compound, the “TEAE: Gastrointestinal disorders” value (SAD Part 1, 1 mg LSF n = 5) was 0 n (%), the “TEAE: General disorders and administration site disorders” value (SAD Part 1, 1 mg LSF n = 5) was 0 n (%) and the “TEAE: Infections and infestations” value (SAD Part 1, 1 mg LSF n = 5) was 0 n (%). The “TEAE: Injury” value (SAD Part 1, 1 mg LSF n = 5) was 0 n (%), the “TEAE: Musculoskeletal and connective tissue disorders” value (SAD Part 1, 1 mg LSF n = 5) was 1 (20.0) n (%) and the “TEAE: Nervous system disorders” value (SAD Part 1, 1 mg LSF n = 5) was 2 (40.0) n (%). For the same compound, the “TEAE: Psychiatric disorders” value (SAD Part 1, 1 mg LSF n = 5) was 0 n (%), the “TEAE: Respiratory” value (SAD Part 1, 1 mg LSF n = 5) was 0 n (%) and the “Any TEAE” value (SAD Part 1, 2.5 mg LSF n = 6) was 0 n (%). The “TEAE: Eye disorders” value (SAD Part 1, 2.5 mg LSF n = 6) was 0 n (%), the “TEAE: Gastrointestinal disorders” value (SAD Part 1, 2.5 mg LSF n = 6) was 0 n (%) and the “TEAE: General disorders and administration site disorders” value (SAD Part 1, 2.5 mg LSF n = 6) was 0 n (%). The “TEAE: Infections and infestations” value (SAD Part 1, 2.5 mg LSF n = 6) was 0 n (%), the “TEAE: Injury” value (SAD Part 1, 2.5 mg LSF n = 6) was 0 n (%) and the “TEAE: Musculoskeletal and connective tissue disorders” value (SAD Part 1, 2.5 mg LSF n = 6) was 0 n (%). For the same compound, the “TEAE: Nervous system disorders” value (SAD Part 1, 2.5 mg LSF n = 6) was 0 n (%), the “TEAE: Psychiatric disorders” value (SAD Part 1, 2.5 mg LSF n = 6) was 0 n (%) and the “TEAE: Respiratory” value (SAD Part 1, 2.5 mg LSF n = 6) was 0 n (%). The “Any TEAE” value (SAD Part 1, 5 mg IRT n = 5) was 3 (60.0) n (%), the “TEAE: Eye disorders” value (SAD Part 1, 5 mg IRT n = 5) was 1 (20.0) n (%) and the “TEAE: Gastrointestinal disorders” value (SAD Part 1, 5 mg IRT n = 5) was 0 n (%). The “TEAE: General disorders and administration site disorders” value (SAD Part 1, 5 mg IRT n = 5) was 0 n (%), the “TEAE: Infections and infestations” value (SAD Part 1, 5 mg IRT n = 5) was 0 n (%) and the “TEAE: Injury” value (SAD Part 1, 5 mg IRT n = 5) was 0 n (%). The “TEAE: Musculoskeletal and connective tissue disorders” value (SAD Part 1, 5 mg IRT n = 5) was 1 (20.0) n (%), the “TEAE: Nervous system disorders” value (SAD Part 1, 5 mg IRT n = 5) was 1 (20.0) n (%) and the “TEAE: Psychiatric disorders” value (SAD Part 1, 5 mg IRT n = 5) was 1 (20.0) n (%). For the same compound, the “TEAE: Respiratory” value (SAD Part 1, 5 mg IRT n = 5) was 0 n (%), the “Any TEAE” value (SAD Part 1, 5 mg LSF n = 6) was 3 (50.0) n (%) and the “TEAE: Eye disorders” value (SAD Part 1, 5 mg LSF n = 6) was 0 n (%). The “TEAE: Gastrointestinal disorders” value (SAD Part 1, 5 mg LSF n = 6) was 1 (16.7) n (%), the “TEAE: General disorders and administration site disorders” value (SAD Part 1, 5 mg LSF n = 6) was 2 (33.3) n (%) and the “TEAE: Infections and infestations” value (SAD Part 1, 5 mg LSF n = 6) was 1 (16.7) n (%). For the same compound, the “TEAE: Injury” value (SAD Part 1, 5 mg LSF n = 6) was 0 n (%), the “TEAE: Musculoskeletal and connective tissue disorders” value (SAD Part 1, 5 mg LSF n = 6) was 1 (16.7) n (%) and the “TEAE: Nervous system disorders” value (SAD Part 1, 5 mg LSF n = 6) was 1 (16.7) n (%). For the same compound, the “TEAE: Psychiatric disorders” value (SAD Part 1, 5 mg LSF n = 6) was 0 n (%), the “TEAE: Respiratory” value (SAD Part 1, 5 mg LSF n = 6) was 0 n (%) and the “Any TEAE” value (SAD Part 1, 10 mg LSF n = 6) was 5 (83.3) n (%). The “TEAE: Eye disorders” value (SAD Part 1, 10 mg LSF n = 6) was 2 (33.3) n (%), the “TEAE: Gastrointestinal disorders” value (SAD Part 1, 10 mg LSF n = 6) was 0 n (%) and the “TEAE: General disorders and administration site disorders” value (SAD Part 1, 10 mg LSF n = 6) was 0 n (%). The “TEAE: Infections and infestations” value (SAD Part 1, 10 mg LSF n = 6) was 1 (16.7) n (%), the “TEAE: Injury” value (SAD Part 1, 10 mg LSF n = 6) was 0 n (%) and the “TEAE: Musculoskeletal and connective tissue disorders” value (SAD Part 1, 10 mg LSF n = 6) was 0 n (%). For the same compound, the “TEAE: Nervous system disorders” value (SAD Part 1, 10 mg LSF n = 6) was 1 (16.7) n (%).
